Tests used:
[1] = tested on: cattle ticks (Boophilus microplus); assay: Boophilus microplus injection test (BOOPMI inj); assay type: in vivo; details: injection into the abdomen; application rate 20 μg/animal; assessed after 7 days
Description: Boophilus microplus—Injection Test (BOOPMI inj)
(§1) Solvent: dimethyl sulfoxide
To produce a suitable preparation of active compound, 10 mg of active compound are mixed with 0.5 ml of solvent and the concentrate is diluted with solvent to the desired concentration.
1 μl of the active compound solution is injected into the abdomen of 5 engorged adult female cattle ticks (Boophilus microplus). The animals are transferred into dishes and kept in a climate-controlled room.
(§2) Efficacy is assessed after 7 days by laying of fertile eggs. Eggs which are not visibly fertile are stored in a climate-controlled cabinet until the larvae hatch after about 42 days. An efficacy of 100% means that none of the ticks has laid any fertile eggs; 0% means that all the eggs are fertile.

Amblyomma hebraeum = Amblyomma hebraeum test (AMBYHE), tick nymph immersion; assay type: in vivo; details: tick nymphs immersed for one minute; application rate 100 ppm; after 42 days
Description: Amblyomma hebaraeum Test (AMBYHE)
as §1
To produce a suitable preparation of active compound, 10 mg of active compound are mixed with 0.5 ml of dimethyl sulfoxide, and the concentrate is diluted with water to the desired concentration.
Tick nymphs (Amblyomma hebraeum) are placed into perforated plastic beakers and immersed in the desired concentration for one minute. The ticks are transferred on filter paper into a Petri dish and stored in a climate-controlled cabinet.
After 42 days, the kill in % is determined. 100% means that all of the ticks have been killed; 0% means that none of the ticks have been killed.

[2] = tested on: cattle ticks (Boophilus microplus) Parkhurst strain, SP-resistant; assay: Boophilus microplus dip test (BOOPMI Dip); assay type: in vivo; details: engorged adult female ticks dipped; application rate 100 ppm; assessed after 7 days
Description: Boophilus microplus—Dip Test (BOOPMI Dip)
Test animals: cattle ticks (Boophilus microplus) Parkhurst strain, SP-resistant
as §1
10 mg of active compound are dissolved in 0.5 ml of dimethyl sulfoxide. To produce a suitable formulation, the active compound solution is diluted with water to the concentration desired in each case.
This active compound preparation is pipetted into tubes. 8-10 engorged adult female cattle ticks (Boophilus microplus) are transferred into a further tube with holes. The tube is immersed into the active compound preparation, and all the ticks are completely wetted. After the liquid has run out, the ticks are transferred on filter disks into plastic dishes and stored in a climate-controlled room.
as §2

[3] = tested on: greenhouse red spider mite (Tetranychus urticae); assay: Tetranychus urticae spray test, OP-resistant (TETRUR), bean leaf disks; assay type: in vivo; details: bean leaf disks; application rate 500 g/ha; after 6 days
In short: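 Efficacy (% mites killed) read 6 days after spraying infested Phaseolus vulgaris leaf disks. Compound preparation: acetone and dimethylformamide solvent, made up in water with 1000 ppm alkylaryl polyglycol ether emulsifier; OP-resistant mite strain, all life stages.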

[4] = log P determination by HPLC on reversed-phase columns (C 18), analogously to OECD Guideline 117; assay type: physicochemical; details: HPLC reversed-phase C 18; for logP (HCOOH): LC-MS in the acidic range, pH 2.7, 0.1% aqueous formic acid / acetonitrile; for logP (neutral): LC-MS in the neutral range, pH 7.8, 0.001 molar aqueous ammonium hydrogencarbonate / acetonitrile
In short: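 Reversed-phase C18 HPLC per OECD 117 with LC-MS detection and a linear 10→95% acetonitrile gradient. Acidic log P run at pH 2.7 with 0.1% formic acid in both eluents. Neutral log P run at pH 7.8 with 0.001 M aqueous ammonium hydrogencarbonate.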

[5] = tested on: green peach aphid (Myzus persicae); assay: Myzus persicae spray test (MYZUPE); assay type: in vivo; details: Chinese cabbage leaf disks; application rate 500 g/ha; after 6 days
Description: Myzus persicae—Spray Test (MYZUPE)
Solvent: 78 parts by weight of acetone
(§3) • 1.5 parts by weight of dimethylformamide Emulsifier: alkylaryl polyglycol ether
(§4) To produce a suitable preparation of active compound, 1 part by weight of active compound is dissolved using the stated parts by weight of solvent and made up with water containing an emulsifier concentration of 1000 ppm until the desired concentration is attained. To produce further test concentrations, the preparation is diluted with emulsifier-containing water.
Disks of Chinese cabbage leaves (Brassica pekinensis) infested by all stages of the green peach aphid (Myzus persicae) are sprayed with an active compound preparation of the desired concentration.
After 6 days, the efficacy in % is determined. 100% means that all the aphids have been killed; 0% means that none of the aphids have been killed.

[6] = tested on: larvae of the mustard beetle (Phaedon cochleariae); assay: Phaedon cochleariae spray test (PHAECO); assay type: in vivo; details: Chinese cabbage leaf disks; application rate 500 g/ha; after 7 days
Description: Phaedon cochleariae—Spray Test (PHAECO)
(§5) Solvent: 78.0 parts by weight of acetone
as §3, §4
After 7 days, the efficacy in % is determined. 100% means that all the beetle larvae have been killed; 0% means that no beetle larvae have been killed.

[7] = tested on: caterpillars of the armyworm (Spodoptera frugiperda); assay: Spodoptera frugiperda spray test (SPODFR); assay type: in vivo; details: maize leaf disks; application rate 500 g/ha; after 7 days
Description: Spodoptera frugiperda—Spray Test (SPODFR)
as §5, §3, §4
Leaf disks of maize (Zea mays) are sprayed with an active compound preparation of the desired concentration and, after drying, populated with caterpillars of the armyworm (Spodoptera frugiperda).
After 7 days, the efficacy in % is determined. 100% means that all the caterpillars have been killed; 0% means that no caterpillars have been killed.

SMILES | efficacy (laying of fertile eggs) [1] [%] | kill in % (Amblyomma hebraeum) [%] | efficacy (laying of fertile eggs) [2] [%] | efficacy in % [3] [%] | logP (HCOOH) [4] | logP (neutral) [4] | efficacy in % [5] [%] | efficacy in % [6] [%] | efficacy in % [7] [%]
Cc1cc(F)c(-n2c(=O)n(C(C)C)c(=O)n2C)cc1SCC(F)(F)F [Example 91] | 100 | 100 | 100 | 100 | 3.35 | 3.28 | – | – | –
Cc1ccc(-n2c(=O)n(C(C)C)c(=O)n2C)cc1[S+]([O-])CC(F)(F)F (stereo not shown) [Example 141] | 100 | – | 90 | 90 | 2.27 | 2.24 | 100 | – | –
Cc1cc(F)c(N2C(=O)CN(C)C2=O)cc1SCC(F)(F)F [Example 200] | – | – | – | 90 | 2.42 | 2.33 | – | 100 | 100
Cc1cc(F)c(N2C(=O)OC(C)C2=O)cc1[S+]([O-])CC(F)(F)F (stereo not shown) [Example 206] | – | – | – | – | 2.08 | – | 100 | – | –

— US9981928B2, “Aryl sulfide derivatives and aryl sulfoxide derivatives as acaricides and insecticides” (BAYER CROPSCIENCE AKTIENGESELLSCHAFT, priority 2013, dated 2018)
